We go through six compounds from patent publication US20060049052A1, “Ampholytic buffer having high buffering capacity and high conductivity in isoelectric form” (The Texas A&M University System, priority 2004, published 2006).

Where a name gives a salt, the structure may show the parent alone.

A short description of series [1]: pH of concentrated aqueous solution of the isoelectric buffer after desalting in IET apparatus (equal to pI). Format: physicochemical. To be noted: isoelectric state after IET desalting. From the text: The aqueous solution was desalted and the ampholytic buffer brought to isoelectric state in an IET apparatus. The pH of the concentrated aqueous solution of isoelectric BCPDEAH was 3.8, equal to its pI value. After liophylization, the solid product was characterized by ^1H- and ^13C-NMR. […] The identity and purity of the final product were further confirmed by high resolution ESI-MS. Only signals corresponding to BCPDEAH and its fragment ions are seen.

The nature of series [2]: Conductivity, pH and buffering capacity of 50 mM solutions of ampholytic buffers. The format is physicochemical. The following applies: 50 mM solution. On the procedure: The conductivities, pH values and buffering capacities of 50 mM solutions of some of the ampholytic buffers of the present invention are listed in Table 1. For comparison purposes, values for histidine (HIS), a widely used low conductivity ampholytic buffer are also included.

The conditions of series [3]: indirect UV detection CE, bare fused silica capillary, 15 kV, T=25, UV 214 nm, BGEs of varied pH.
Procedure: Using a 26 :m I.D. bare fused silica capillary, Lt=26.1 cm, Ld=19.7 cm at 15 kV in positive to negative polarity, T=25 EC, UV detector set at 214 nm, conventional CE was carried out in 20 mM tris(hydroxymethyl) aminomethane (Tris) and 20 mM benzylamine BGEs titrated with pTSA.
Using a 26 :m I.D. bare fused silica capillary, Lt=26.1 cm, Ld=19.7 cm at 15 kV in positive to negative polarity, T=25 EC, and the UV detector set at 214 nm, conventional CE was carried out in 20 mM acetic acid BGEs titrated with imidazole and 20 mM pyridine BGEs titrated with pTSA.

In the case of `CC[N+](CC)(CCCC(=O)[O-])CCCC(=O)O` [BCPDEAH, N,N-bis(carboxypropyl)diethyl ammonium hydroxide, inner salt], the “pH of the concentrated aqueous solution of isoelectric form, equal to its pI value” in series [1] was determined as 3.8. In series [2], the Buffering capacity amounted to 35.7 mM/pH, the Conductivity worked out at 18.4 mS/m and the pH came to 4.15.

`O=S(=O)(O)OC(CN1CCCCC1)CN1CCCCC1` [DPSP, 1,3-dipiperidino-2-O-sulfo-propane]: in series [2], the Buffering capacity is on record as 20.8 mM/pH, the Conductivity came out at 18.1 mS/m and the pH amounted to 8.35. In series [3], this compound came in with a pI of 8.9.

In series [2], `CN(C)CC(CN(C)C)OS(=O)(=O)O` [BDASP, 1,3-bis(N,N-dimethylamino)-2-O-sulfo-propane] displayed a Buffering capacity of 25.0 mM/pH, a Conductivity of 25.8 mS/m and a pH of 7.82. This compound showed a pI in series [3] of about 8.0.

For the compound `CCCN(CCC)CC(CN(CCC)CCC)OS(=O)(=O)O` [BDPSP, 1,3-bis(dipropylamino)-2-O-sulfo-propane], the pI in series [3] was determined as 8.7.

In series [2], `N[C@@H](Cc1c[nH]cn1)C(=O)O` [HIS, histidine, reference compound] gave a Buffering capacity of 12.5 mM/pH, a Conductivity of 3.5 mS/m and a pH of 7.44.

On to `O=S(=O)(O)OC(CN1CCOCC1)CN1CCOCC1` [DMSP, 1,3-dimorpholino-2-O-sulfo-propane], for which, in series [2], the Buffering capacity turned out to be 14.7 mM/pH, the Conductivity is given as 7.3 mS/m and the pH is 5.79. The compound further had a pI in series [3] of 5.8.
